Results: PubChem BioAssay (NCI)
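Growth conditions: 96-well plates. Treatment: test compound, 48 hours, 5 concentrations. Analysis: linear interpolation between bracketing concentrations; unreached endpoints set to highest concentration. GI50 = concentration required for 50% inhibition of growth. At the TGI there is no net growth.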

Assays:
Experiment in all cases: inhibition of tumour cell growth, NCI panel, 48 h
[1] = test system: SF-268 CNS
[2] = test system: CAKI-1 renal
[3] = test system: SF-295 CNS
[4] = test system: PC-3 prostate
[5] = test system: SN12C renal
[6] = test system: OVCAR-5 ovarian
[7] = test system: HOP-92 NSCLC
[8] = test system: IGROV1 ovarian
[9] = test system: HT29 colon
[10] = test system: ACHN renal
[11] = test system: UACC-257 melanoma
[12] = test system: LOX IMVI melanoma
[13] = test system: SK-OV-3 ovarian
[14] = test system: BT-549 breast
[15] = test system: TK-10 renal
[16] = test system: UO-31 renal
[17] = test system: MDA-MB-435
[18] = test system: MCF7 breast
[19] = test system: SK-MEL-28 melanoma
[20] = test system: KM12 colon
[21] = test system: 786-0 renal
[22] = test system: UACC-62 melanoma
[23] = test system: NCI-H23 lung
[24] = test system: NCI-H522 lung
[25] = test system: T-47D breast
[26] = test system: U251 CNS
[27] = test system: RPMI-8226 leukemia
[28] = test system: OVCAR-4 ovarian
[29] = test system: DU-145 prostate
[30] = test system: A498 renal
[31] = test system: HS 578T breast
[32] = test system: K-562 leukemia
[33] = test system: CCRF-CEM leukemia
[34] = test system: NCI/ADR-RES ovarian
[35] = test system: SNB-19 CNS
[36] = test system: NCI-H226 lung
[37] = test system: HCC-2998 colon
[38] = test system: NCI-H460 lung
[39] = test system: SW-620 colon
[40] = test system: COLO 205 colon
[41] = test system: HCT-15 colon
[42] = test system: HL-60(TB) leukemia
[43] = test system: SK-MEL-5 melanoma
[44] = test system: RXF 393 renal
[45] = test system: M14 melanoma
[46] = test system: EKVX NSCLC
[47] = test system: SF-539 CNS
[48] = test system: SK-MEL-2 melanoma
[49] = test system: MALME-3M melanoma
[50] = test system: SNB-75 CNS
[51] = test system: HCT-116 colon
[52] = test system: A549 NSCLC
[53] = test system: MOLT-4 leukemia
[54] = test system: SR leukemia
[55] = test system: OVCAR-8 ovarian
[56] = test system: MDA-MB-231 breast
[57] = test system: HOP-62 NSCLC

SMILES: CN1CCN(Cc2ccc(NC(=O)c3cncc(C#Cc4cnc5ccc(OCC6(C)COC6)nn45)c3)cc2C(F)(F)F)CC1
- GI50 [1]: 117 nM
- TGI [1]: 333 nM
- GI50 [2]: 87.8 nM
- TGI [2]: 254 nM
- GI50 [3]: 440 nM
- TGI [3]: 1070 nM
- GI50 [4]: 218 nM
- TGI [4]: 830 nM
- GI50 [5]: 112 nM
- TGI [5]: 489 nM
- GI50 [6]: 172 nM
- TGI [6]: 609 nM
- GI50 [7]: 59.5 nM
- TGI [7]: 217 nM
- GI50 [8]: 105 nM
- TGI [8]: 437 nM
- GI50 [9]: 151 nM
- TGI [9]: 639 nM
- GI50 [10]: 108 nM
- TGI [10]: 465 nM
- GI50 [11]: 228 nM
- TGI [11]: 829 nM
- GI50 [12]: 107 nM
- TGI [12]: 322 nM
- GI50 [13]: 233 nM
- TGI [13]: 747 nM
- GI50 [14]: 320 nM
- TGI [14]: 940 nM
- GI50 [15]: 149 nM
- TGI [15]: 451 nM
- GI50 [16]: 130 nM
- TGI [16]: 436 nM
- GI50 [17]: 142 nM
- TGI [17]: 535 nM
- GI50 [18]: 86 nM
- TGI [18]: 525 nM
- GI50 [19]: 167 nM
- TGI [19]: 612 nM
- GI50 [20]: 5 nM
- TGI [20]: 352 nM
- GI50 [21]: 215 nM
- TGI [21]: 720 nM
- GI50 [22]: 125 nM
- TGI [22]: 577 nM
- GI50 [23]: 134 nM
- TGI [23]: 462 nM
- GI50 [24]: 96.7 nM
- TGI [24]: 204 nM
- GI50 [25]: 279 nM
- TGI [25]: 1150 nM
- GI50 [26]: 193 nM
- TGI [26]: 715 nM
- GI50 [27]: 223 nM
- TGI [27]: 1440 nM
- GI50 [28]: 135 nM
- TGI [28]: 757 nM
- GI50 [29]: 164 nM
- TGI [29]: 527 nM
- GI50 [30]: 142 nM
- TGI [30]: 407 nM
- GI50 [31]: 80.4 nM
- TGI [31]: 321 nM
- GI50 [32]: 5 nM
- TGI [32]: 50000 nM
- GI50 [33]: 165 nM
- TGI [33]: 15900 nM
- GI50 [34]: 163 nM
- TGI [34]: 580 nM
- GI50 [35]: 200 nM
- TGI [35]: 668 nM
- GI50 [36]: 98.5 nM
- TGI [36]: 975 nM
- GI50 [37]: 199 nM
- TGI [37]: 656 nM
- GI50 [38]: 194 nM
- TGI [38]: 669 nM
- GI50 [39]: 121 nM
- TGI [39]: 317 nM
- GI50 [40]: 111 nM
- TGI [40]: 236 nM
- GI50 [41]: 123 nM
- TGI [41]: 408 nM
- GI50 [42]: 190 nM
- TGI [42]: 604 nM
- GI50 [43]: 642 nM
- TGI [43]: 1280 nM
- GI50 [44]: 113 nM
- TGI [44]: 294 nM
- GI50 [45]: 84.9 nM
- TGI [45]: 218 nM
- GI50 [46]: 152 nM
- TGI [46]: 641 nM
- GI50 [47]: 91.1 nM
- TGI [47]: 573 nM
- GI50 [48]: 102 nM
- TGI [48]: 218 nM
- GI50 [49]: 89 nM
- TGI [49]: 303 nM
- GI50 [50]: 128 nM
- TGI [50]: 357 nM
- GI50 [51]: 125 nM
- TGI [51]: 476 nM
- GI50 [52]: 145 nM
- TGI [52]: 433 nM
- GI50 [53]: 145 nM
- TGI [53]: 16500 nM
- GI50 [54]: 140 nM
- TGI [54]: 1650 nM
- GI50 [55]: 157 nM
- TGI [55]: 547 nM
- GI50 [56]: 73.1 nM
- TGI [56]: 243 nM
- GI50 [57]: 156 nM
- TGI [57]: 518 nM
